We go through one compound from patent US12605362B2, “Eletriptan hydrobromide for treatment of spinal cord injury and improvement of locomotor function” (TECHNOPHAGE, INVESTIGAÇÃO E DESENVOLVIMENTO EM …, priority 2020, dated 2026).

Molecules are shown by their SMILES. Counter-ions that a name gives are not always drawn.

The subject of assay [1] is mice with T9 contusion type of injury. The assay is described as follows: activated microglia quantification and morphology (P2Y12 / F4/80 immunohistochemistry). It is filed as in vivo. The conditions noted are these: 42 dpi; for number of P2Y12+ F4/80+ (activated microglia) cells: vs Vehicle. The protocol:
(§1) A moderate-severe contusion-type of injury was performed on adult C57BL/6 female mice (10-12 weeks) with an Infinite Horizon Impactor (PSI)^30. All surgeries were performed under aseptic conditions. Briefly, under deep anesthesia with Ketamine and Xylazine (120 mg/kg and 16 mg/kg respectively, i.p.) mice received a dorsal laminectomy at the level of 9th thoracic vertebra (T9). After securing the lateral processes of the 8th thoracic vertebra (T8) and 10th thoracic vertebra (T10) with a stainless-steel impactor tip, a controlled force-defined impact at 75 kdyne was delivered to the exposed spinal cord^28,30. Then, muscle and skin were closed with 4.0 polyglycolic acid (PGA) absorbable sutures (Safil, G1048213). In this study, mice were excluded when the actual displacement value was outside the interval 500-700 μm or if the actual force after impact was >2SD 75 Kdyne. Immediately after injury, mice were injected subcutaneously with 0.5 ml of sterile saline and then daily for 5 days. During this experiment, mice underwent gentle bladder expression twice daily until they were voiding on their own. Weight was monitored daily until 15 days-post-injury (dpi) and then weekly for the duration of the study and a high caloric pellet (Supreme Mini-Treats™ S05478 and S05472) was provided as a dietary supplement since a 10% weight loss was typically observed in this SCI model upon injury. […]
(§2) For immunohistochemistry in sections, OCT was removed from the cryosections using PBS (30 minutes). […] For activated microglia quantification, sections were counterstained with DAPI. […]
To quantify the activated microglia one set of spinal cord sections were stained with anti-P2Y12 (a microglia specific marker) and anti-F4/80 (a pan macrophage marker) and counterstained with […] DAPI. Z-stack compositions were acquired in a motorized inverted widefield fluorescence microscope (Zeiss Cell Observer, Carl Zeiss MicroImaging) with 20× magnification. […]

Assay [2] has as its system transected zebrafish larvae. The experiment in a line: larval zebrafish phenotypic-based screen for SCI (transected spinal cord, DanioVision swimming activity). It counts as in vivo. The text has this: Tg(mnx1:GFP^m12), abbreviated as hb9:GFP were maintained and bred in constant conditions, by following standard guidelines for fish care and maintenance protocols^27. Zebrafish larvae were used in the phenotypic-based screen for SCI.
A larval zebrafish phenotypic-based screen was used to screen a pool of compounds from a small molecule library (PHARMAKON 1600-MicroSource Discovery Systems, Inc., USA) as previously described by Diana et al. 201928. Briefly, zebrafish larvae were allowed to develop in EM with 1 μM methylene blue until 5 days-post-fertilization (dpf). At 5dpf, zebrafish larvae spinal cords were transected at the level of the anal pore (Diana et al. 2019). At 1 dpi, larvae were randomly distributed into 6-well plates containing EM+10 mM HEPES and exposed during 24 hours to the chemical compounds added to the medium. At 2 dpi, behavioural assessment was performed using DanioVision™ (Noldus Information Technology, the Netherlands) an automated tracking system for zebrafish larvae. Larvae were allowed to freely swim in a 96-well plate (1 larva/well) with EM+10 mM HEPES and their swimming activity was tracked for […], under 10 minutes light-dark cycles (i.e. 3 light cycles and 3 dark cycles). The acquired track data was analysed using the Ethovision X.T. 10 software (Noldus, Wageningen, Netherlands) and only swimming activity obtained in the 3 dark periods were analysed^29.
To accelerate the discover of potential new therapeutics for spinal cord injury (SCI) we used a phenotypic assay that enabled the screening of a pool of chemical compounds from an FDA approved small molecules library. In this phenotypic-based screen, we blindly administered the chemical compounds (25 μM) at 1 day-post-injury (dpi) and we performed the behavioural assessment 24 hours later (i.e. at 2 dpi) as previously described by Chapela D. et al. 2019. The small molecules were first blindly selected, if there was a statistically significant improvement of total distance moved and/or turn angle parameters, which were chosen as indicators of locomotor function. […]

For assay [3], the system named is mice with T9 contusion type of injury. The assay is described as follows: PDGFRβ / CD31 (PECAM-1) double immunohistochemistry, vasculature association. It counts as in vivo. The conditions noted are these: sections 1000 μm from epicentre, 42 dpi, vs Vehicle. The procedure:
as §1, with “Then, muscle and skin were closed with 4.0 polyglycolic acid (PGA) absorbable sutures (Safil, G1048213). In this study, mice were excluded when the actual displacement value was outside the interval 500-700 μm or if the actual force after impact was >2SD 75 Kdyne. Immediately after injury, mice were injected subcutaneously with 0.5 ml of sterile saline and then daily for 5 days. During this experiment, mice underwent gentle bladder expression twice daily until they were voiding on their own.” left out
as §2
To infer if increased levels of PDGFRβ^+ detected on the extremities of the lesion extents were associated with blood vessels we decided to performed a double immunohistochemistry using a pericyte marker PDGFRβ and an endothelial cell marker CD31 (PECAM-1) (FIG. 7). […]

For another assay, the target named is 5-HT1B (Homo sapiens, UniProt P28222). The conditions noted are these: serotonin receptor agonist; cited from earlier work.
The target of a further assay is 5-HT1D (Homo sapiens, UniProt P28221). The note with it: serotonin receptor agonist; cited from earlier work.
Setting [4] is: 25 μM from 1 dpi, assessed at 2 dpi, dark periods, vs vehicle.

5-HT1D, sequence (P28221 whole entry, species assumed): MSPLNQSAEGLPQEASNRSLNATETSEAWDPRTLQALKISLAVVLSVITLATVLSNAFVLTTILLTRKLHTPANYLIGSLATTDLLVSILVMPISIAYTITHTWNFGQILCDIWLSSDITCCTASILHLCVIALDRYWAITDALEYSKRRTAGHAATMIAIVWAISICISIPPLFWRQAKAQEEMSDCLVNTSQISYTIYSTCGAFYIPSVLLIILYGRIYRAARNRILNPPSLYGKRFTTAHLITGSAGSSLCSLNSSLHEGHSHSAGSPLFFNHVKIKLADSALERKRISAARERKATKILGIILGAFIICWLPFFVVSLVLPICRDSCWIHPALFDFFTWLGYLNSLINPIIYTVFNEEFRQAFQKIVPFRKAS
5-HT1B, sequence (P28222 whole entry, species assumed): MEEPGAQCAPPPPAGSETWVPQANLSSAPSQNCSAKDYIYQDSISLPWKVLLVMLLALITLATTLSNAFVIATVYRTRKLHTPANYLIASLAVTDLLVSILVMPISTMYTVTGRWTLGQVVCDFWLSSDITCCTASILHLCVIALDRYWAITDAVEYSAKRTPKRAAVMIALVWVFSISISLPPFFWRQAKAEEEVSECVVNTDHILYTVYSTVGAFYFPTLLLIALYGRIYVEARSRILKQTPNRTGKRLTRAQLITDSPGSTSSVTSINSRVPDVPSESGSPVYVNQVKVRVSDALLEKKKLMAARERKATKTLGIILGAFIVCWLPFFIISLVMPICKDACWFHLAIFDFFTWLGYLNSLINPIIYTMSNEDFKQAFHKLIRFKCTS

For `CN1CCC[C@@H]1Cc1c[nH]c2ccc(CCS(=O)(=O)c3ccccc3)cc12` [Eletriptan Hbr, Eletriptan Hydrobromide], the “number of P2Y12+ F4/80+ (activated microglia) cells” value in assay [1] is given as “no statistically significant differences”; in assay [1] (at 400 μm rostrally and caudally to the epicentre), “consistently higher”. For the same compound, the “P2Y12+ microglia morphology” value in assay [1] (sections near or at the epicentre, feature not observed in Vehicle-treated mice) is given as “longer, ramified processes were also observed”. For the same compound, in assay [2] (setting [4]), the total distance moved entry is recorded as “rescues motor impairments”. For the same compound, the turn angle result in assay [2] (setting [4]) is reported as “rescues motor impairments”. For the same compound, the locomotor impairments entry in assay [2] (25 μM in medium from 1 dpi for 24 hours, behavioural assessment at 2 dpi, vs vehicle treated injured larvae) was “rescue locomotor impairments”. In assay [3], the “increased expression of PDGFRβ associated with CD31+ endothelial cells” value is recorded as “reduced”. Further, the affinity entry at 5-HT1B and on 5-HT1D was “high affinity” each time.
